For one assay, the target named is T1, jack bean urease (Canavalia ensiformis, UniProt P07374).
T1 construct: purchased Sigma
Kind of assay: biochemical. The procedure: To evaluate the urease enzyme activity, assay described by Weatherburn 1967 was performed. In 96-well plate, 10 μl of enzyme (jack bean urease, 5 U/ml), 40 μl buffer (100 mM urea, 0.01 M K2HPO4, 1 mM EDTA, and 0.01 M […], pH 8.2), and 20 μl of test drug were loaded. Following 15 min incubation at 37°C, 40 μl of alkali reagent (0.5%, w/v NaOH and 0.1% active chloride NaOCl) and 40 μl of phenol reagents (1%, w/v phenol and 0.005%, w/v sodium nitroprusside) were added.

The next assay addresses T2, mushroom tyrosinase (Agaricus bisporus, UniProt C7FF04).
T2 construct: purchased Sigma
Description: Tyrosinase enzyme kinetics and inhibition mechanism (Lineweaver-Burk, Dixon, diphenolase activity plots). It counts as biochemical. Conditions: for Mode of tyrosinase inhibition: Lineweaver-Burk plot, oxidation of L-DOPA; for Reversible or irreversible tyrosinase inhibition: diphenolase activity, enzyme activity vs enzyme concentration 0.44-14 μg/ml; for ESI dissociation constant (Ki'), tyrosinase: secondary replot of Lineweaver-Burk intercept; for ESI dissociation constant (Ki'), tyrosinase / Ki: substrate L-DOPA; for Ki: secondary replot of Lineweaver-Burk slope, read-out: EI dissociation constant (Ki), tyrosinase. As to the method:
(§1) To this end, the Lineweaver-Burk plots of 1/absorbance versus 1/urea and 1/absorbance versus 1/L-DOPA were plotted. In all kinetic studies, drug concentrations (as indicated in Lineweaver-Burk plot) and respective substrates, urea in buffer (0.063 to 2 mM) for urease and L-DOPA (0.06 to 2 mM) for tyrosinase, were added and plates were incubated for 10 min at 37°C. Later, respective enzymes were added in plates and absorbance (wavelengths same as above) was monitored for 5 min with 1 min interval. The Lineweaver-Burk plot showing type of enzyme inhibition was plotted as inverse of velocities (1/V) versus inverse of substrate concentration 1/[S] Mm^−1. Later, inhibition constant (Ki) was evaluated by both the Dixon plot and from Lineweaver-Burk plot, by secondary replot of slope versus concentrations of inhibitor.
(§2) To this end, a plot among remaining enzyme activity versus various concentrations of respective enzymes in the presence of drug concentrations (as indicated in graph) was devised as determinant of reversible or irreversible behaviour of enzyme inhibition.

The target of another assay is T3, urease (Canavalia ensiformis, UniProt P07374).
T3 construct: purchased Sigma
Kind of assay: Urease enzyme kinetics and inhibition mechanism (Lineweaver-Burk, Dixon, enzyme activity vs enzyme concentration plots). It counts as biochemical, jack bean. To be noted: for Mode of urease inhibition: Lineweaver-Burk plot; for Reversible or irreversible urease inhibition: enzyme activity vs enzyme concentration 0.44-14 μg/ml; for ESI dissociation constant (Ki'), urease: secondary replot of Lineweaver-Burk intercept, substrate urea. As to the method: as §1, §2

Results on twelve molecules are retold here after PMC9352478, “Cephalosporin as Potent Urease and Tyrosinase Inhibitor: Exploration through Enzyme Inhibition, Kinetic Mechanism, and Molecular Docking Studies” (BioMed Research International, 2022).

Structures are written as SMILES. Entries after “also recorded” stand apart in the source; their conditions may differ. Like-named read-outs stand apart in the source and are kept apart here.

T3 sequence (P07374 whole entry, looked up): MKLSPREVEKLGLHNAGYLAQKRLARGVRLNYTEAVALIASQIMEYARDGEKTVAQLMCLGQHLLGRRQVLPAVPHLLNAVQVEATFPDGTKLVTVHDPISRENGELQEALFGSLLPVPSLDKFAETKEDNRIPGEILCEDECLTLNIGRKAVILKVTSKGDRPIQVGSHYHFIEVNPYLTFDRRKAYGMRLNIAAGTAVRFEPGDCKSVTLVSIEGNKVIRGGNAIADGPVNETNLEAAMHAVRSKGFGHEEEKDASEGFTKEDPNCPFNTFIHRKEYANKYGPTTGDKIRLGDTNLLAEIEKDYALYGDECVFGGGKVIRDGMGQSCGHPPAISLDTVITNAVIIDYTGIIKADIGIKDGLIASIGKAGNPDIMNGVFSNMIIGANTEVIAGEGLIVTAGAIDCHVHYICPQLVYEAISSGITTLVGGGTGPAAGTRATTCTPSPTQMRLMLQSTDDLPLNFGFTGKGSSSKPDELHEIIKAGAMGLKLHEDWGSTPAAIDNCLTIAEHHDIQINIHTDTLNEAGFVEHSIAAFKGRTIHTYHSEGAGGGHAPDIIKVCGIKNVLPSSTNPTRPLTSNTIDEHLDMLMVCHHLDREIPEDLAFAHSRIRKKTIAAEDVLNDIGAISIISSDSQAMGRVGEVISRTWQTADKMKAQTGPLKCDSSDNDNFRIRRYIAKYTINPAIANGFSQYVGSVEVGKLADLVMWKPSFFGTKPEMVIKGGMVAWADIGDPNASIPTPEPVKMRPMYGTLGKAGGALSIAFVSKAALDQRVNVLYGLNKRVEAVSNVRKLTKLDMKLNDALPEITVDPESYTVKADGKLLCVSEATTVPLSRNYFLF
T1 sequence (P07374 whole entry, looked up): as above
T2 sequence (C7FF04 1-392 limits assumed): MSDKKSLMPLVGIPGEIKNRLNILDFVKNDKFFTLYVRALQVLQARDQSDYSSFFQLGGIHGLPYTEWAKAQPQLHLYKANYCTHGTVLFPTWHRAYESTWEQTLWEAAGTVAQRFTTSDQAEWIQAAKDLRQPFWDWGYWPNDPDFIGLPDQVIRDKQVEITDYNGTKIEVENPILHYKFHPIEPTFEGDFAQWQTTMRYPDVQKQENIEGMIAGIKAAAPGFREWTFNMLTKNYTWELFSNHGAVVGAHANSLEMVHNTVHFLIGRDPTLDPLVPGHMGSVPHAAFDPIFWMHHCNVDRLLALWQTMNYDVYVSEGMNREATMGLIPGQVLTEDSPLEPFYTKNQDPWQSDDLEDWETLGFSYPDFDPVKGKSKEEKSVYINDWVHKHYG

With `CO/N=C(\C(=O)N[C@@H]1C(=O)N2C(C(=O)[O-])=C(C[N+]3(C)CCCC3)CS[C@H]12)c1csc(N)n1` [Cefepime], inhibition against jack bean urease was half-maximal at 190 ± 37 µM (IC50).

On jack bean urease, `COCC1=C(C(=O)OC(C)OC(=O)OC(C)C)N2C(=O)[C@@H](NC(=O)/C(=N\OC)c3csc(N)n3)[C@H]2SC1` (stereo partly shown) [Cefpodoxime proxetil] showed a half-maximal inhibitory concentration (IC50) of 100 ± 14 µM.

In the case of `NC(N)=S` [Thiourea], the IC50 at jack bean urease (jack bean urease 5 U/ml, 100 mM urea, pH 8.2, OD625 nm, read-out: Jack bean urease inhibition IC50 ± SEM) was 19 ± 2 µM.

Molecule `CC(C)(O/N=C(\C(=O)N[C@@H]1C(=O)N2C(C(=O)[O-])=C(C[n+]3ccccc3)CS[C@H]12)c1csc(N)n1)C(=O)O` [Ceftazidime] gave a 50% inhibitory concentration (IC50) against jack bean urease of 91 ± 7 µM.

In turn, `N[C@@H](C(=O)N[C@@H]1C(=O)N2C(C(=O)O)=C(Cl)CS[C@H]12)c1ccccc1` [Cefaclor] registered an IC50 on jack bean urease of 170 ± 16 µM.

`CO/N=C(\C(=O)N[C@@H]1C(=O)N2C(C(=O)O)=C(CSc3nc(=O)c(=O)[nH]n3C)CS[C@H]12)c1csc(N)n1` [Ceftriaxone sodium]: the IC50 at jack bean urease was found to be 80 ± 4 µM. At mushroom tyrosinase, the “Mode of tyrosinase inhibition” value is reported as “mixed-type, preferentially competitive”; the “Reversible or irreversible tyrosinase inhibition” value was “irreversibly; also recorded: irreversible”; the “ESI dissociation constant (Ki'), tyrosinase” value worked out at 600 µM; the Ki came to 100 µM. On urease, the affinity corresponds to a Ki of 700 µM; the “Mode of urease inhibition” value is reported as “competitive”; the “Reversible or irreversible urease inhibition” value was “irreversibly”; the “ESI dissociation constant (Ki'), urease” value came to 6000 µM.

`CO/N=C(\C(=O)N[C@@H]1C(=O)N2C(C(=O)O)=C(COC(C)=O)CS[C@H]12)c1csc(N)n1` [Cefotaxime sodium] had an IC50 against jack bean urease of 60 ± 4 µM. Also, at mushroom tyrosinase, the “Mode of tyrosinase inhibition” value is “mixed-type, preferentially competitive”; the “Reversible or irreversible tyrosinase inhibition” value is on record as “irreversibly; also recorded: irreversible”; the “ESI dissociation constant (Ki'), tyrosinase” value amounted to 800 µM; the inhibitory constant (Ki) is 70 µM. At urease, the inhibition constant Ki came out at 120 µM; the “Mode of urease inhibition” value is recorded as “competitive”; the “Reversible or irreversible urease inhibition” value is given as “irreversibly”; the “ESI dissociation constant (Ki'), urease” value came out at 30000 µM.

`CC1=C(C(=O)O)N2C(=O)[C@@H](NC(=O)[C@H](N)c3ccccc3)[C@H]2SC1` [Cephalexin]: at jack bean urease, the 50% inhibitory concentration (IC50) amounted to 370 ± 46 µM.

Consider `CO/N=C(\C(=O)N[C@@H]1C(=O)N2C(C(=O)O)=C(COC(N)=O)CS[C@H]12)c1ccco1` [Cefuroxime], for which half-maximal inhibition at jack bean urease (IC50) required 180 ± 9 µM.

For the molecule `CC1=C(C(=O)O)N2C(=O)[C@@H](NC(=O)[C@H](N)C3=CCC=CC3)[C@H]2SC1` [Cephradine], the midpoint of inhibition at jack bean urease, the IC50, lay at 120 ± 9 µM.

As to `CC1=C(C(=O)O)N2C(=O)[C@@H](NC(=O)[C@H](N)c3ccc(O)cc3)[C@H]2SC1` [Cefadroxil], on jack bean urease, the midpoint of inhibition, the IC50, lay at 220 ± 6 µM.

Take `C=CC1=C(C(=O)O)N2C(=O)[C@@H](NC(=O)/C(=N\OCC(=O)O)c3csc(N)n3)[C@H]2SC1` [Cefixime trihydrate]: the IC50 on jack bean urease turned out to be 180 ± 14 µM.
